In patent US8648091B2, “Dihydroquinolinones as ectoparasiticides” (Novartis AG, priority 2007, dated 2014):

How the values were obtained:
[1] = system: Ctenocephalides felis (cat flea); test: Activity in vitro against Ctenocephalides felis (cat flea), artificial feeding system; conditions: fleas fed on treated blood for 24 hours, dead fleas
Protocol: 1. Activity In Vitro Against Ctenocephalides felis (Cat Flea). A mixed adult population of fleas is placed in a suitably formatted 96-well plate allowing fleas to access and feed on treated blood via an artificial feeding system. Each compound is tested by serial dilution in order to determine its minimal effective dose (MED). Fleas are fed on treated blood for 24 hours, after which the compound's effect is recorded. Insecticidal activity is determined on the basis of the number of dead fleas recovered from the feeding system.

[2] = system: Rhipicephalus sanguineus nymphs; test: In-vivo test against Rhipicephalus sanguineus nymphs on Mongolian gerbils; parameters: species or system Mongolian gerbils (Meriones unguiculatus); conditions: spray (or spot-on) application, tick number reduction vs placebo, Abbot's formula
Protocol: 4. In-Vivo Test Against Rhipicephalus sanguineus Nymphs on Mongolian Gerbils (Meriones unguiculatus) On day 0, gerbils are treated with the test compound at a given dose by spray (or spot-on) application. On day +1 (+2), the animals are infested with nymphs of Rhipicephalus. sanguineus. Ticks are left on the animals until full repletion. Seven days after infestation nymphs dropped off fully engorged are collected and counted. They are kept until molting to also evaluate growth regulating activity of the test compound. Efficacy in killing (and growth regulating) is expressed as a tick number (and molted tick number) reduction in comparison with a placebo treated group, using the Abbot's formula.

[3] = system: Rhipicephalus sanguineus; test: Activity in vitro against ticks, microplate pre-coated with test compound; conditions: at 10 ppm; percentage of dead ticks compared to untreated controls
Protocol: (§1) 2. Activity In Vitro Against Ticks 5-10 ticks of different species (i.e. Rhipicephalus sanguineus, Dermacentor spp., etc.) are distributed into a microplate pre-coated with test compound. Each compound is tested by serial dilution in order to determine its Minimal Effective Dose (MED). The microplates are then incubated at 28° C. and 80% humidity until evaluation. At different time points, ticks are excited by carbon dioxide flush and/or heat. […] If the ticks fail to respond to the stimulation, they are considered dead and the compound is scored as active at the tested concentration. Activity is calculated as a percentage of dead ticks compared to untreated controls.

[4] = system: Amblyomma variegatum; test: as above; conditions: at 32 ppm; percentage of dead ticks compared to untreated controls
Protocol: as §1

[5] = system: Dermacentor variabilis; test: as above; conditions: at 10 ppm; percentage of dead ticks compared to untreated controls
Protocol: as §1

[6] = system: Dermanyssus gallinae; test: Activity in vitro against Dermanyssus gallinae; conditions: at 63 ppm; 10 minutes contact, incubated 5 days
Protocol: 3. Activity In Vitro Against Dermanyssus gallinae A clean female mite population is used to seed a suitably formatted 96-well plate containing the test substances to be evaluated for antiparasitic activity. Each compound is tested by serial dilution in order to determine its Minimal Effective Dose (MED). Mites are left in contact with the test compound for 10 minutes and are then incubated at 25° C. and 60% relative humidity (RH) for 5 days, during which the test compound's effect is monitored. Acaricidal activity is confirmed if mites are dead without having laid eggs. Egg-laying and ensuing mite development are also recorded to identify possible growth-regulating activity.

[7] = system: Ixodes ricinus; test: In-vivo test against ticks (Ixodes ricinus) on cats; conditions: 25 mg/kg spray (1% solution in Polypropylenglycol), vs placebo, Abbot's formula
Protocol: 6. In-Vivo Test Against Ticks (Ixodes ricinus) on Cats
(§2) Cats are separated into one treatment and one control group (4 cats per group). On day 0, the cats are treated with the test compound at a dose of 25 mg/kg (1% solution in Polypropylenglycol) by spray application. On day +1, the animals are infested with unfed adult ticks (sex ratio 1:1). Evaluation of efficacy is performed at 48 h, and then weekly 48 h after reinfestation with ticks by counting the numbers of dead and live ticks recovered from the animals. Efficacy is expressed as comparison with a placebo treated group using the Abbot's formula. Infestation can be repeated at weekly intervals until efficacy drops.

[8] = system: Rhipicephalus sanguineus; test: In-vivo test against ticks (Rhipicephalus sanguineus) on dogs; parameters: species or system Dogs of the beagle breed; conditions: for six weeks; 25 mg/kg spot-on (15% solution in Transcutol); weekly reinfestation; vs placebo, Abbot's formula
Protocol: as §2, with “5. In-Vivo Test Against Ticks (Rhipicephalus sanguineus) on Dogs Dogs of the beagle breed” for “Cats”, “dogs” for “cats”, “(15%” for “(1%”, “Transcutol)” for “Polypropylenglycol)”, “spot-on application (between the shoulder blades).” for “spray application.”

`C=C(C)C1CCC(C)(/C=C/c2ccc3c(c2O)C(O)(c2ccc(OC)cc2)C(OC)C(=O)N3)O1` (stereo not drawn) [compound No. 8] was tested, and the mean efficacy ([1]; at 100 ppm) was 90% and the mean efficacy ([2]; at 10 ppm) was 60%.

For `COc1ccc(C2(O)c3c(ccc(/C=C/C4(C)CCC(C(C)(C)O)O4)c3O)NC(=O)C2OC)cc1` (stereo not drawn) [compound No. 9], the mean efficacy ([1]; at 63 ppm) was 70%.

Compound `COc1ccc(C2(O)c3c(ccc(/C=C/C4(C)CCC(C)(C)CO4)c3O)NC(=O)C2OC)cc1` (stereo not drawn) [compound No. 11] has a mean efficacy [3] of 100%, a mean efficacy [4] of 90% and a mean efficacy [5] of 100%. It also gave a mean efficacy [6] of 90%, an activity ([7]; after one week) of 95% and an activity ([7]; after two weeks) of 70%. For the same compound, the activity [8] was “above 90%”, the mean efficacy ([1]; at 32 ppm) was 95% and the mean efficacy ([2]; at 3.2 ppm) was 95%.
